Test results as given in PubChem BioAssay (NCI).
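These data come from cells grown in 96-well plates and exposed to compound for 48 hours at five concentrations. Abbreviation: GI50, concentration required for 50% inhibition of growth. Definition used: TGI = concentration required for complete inhibition of growth.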

How the values were obtained:
Assay in all cases: NCI anticancer screen, dose series, 48 h
[1] = test system: HCT-116 colon
[2] = test system: UACC-257 melanoma
[3] = test system: ACHN renal
[4] = test system: SF-295 CNS
[5] = test system: MDA-MB-435
[6] = test system: SF-268 CNS
[7] = test system: OVCAR-4 ovarian
[8] = test system: LOX IMVI melanoma
[9] = test system: MOLT-4 leukemia
[10] = test system: NCI-H460 lung
[11] = test system: SN12C renal
[12] = test system: DU-145 prostate
[13] = test system: TK-10 renal
[14] = test system: COLO 205 colon
[15] = test system: MALME-3M melanoma
[16] = test system: HOP-62 NSCLC
[17] = test system: SK-OV-3 ovarian
[18] = test system: NCI-H226 lung
[19] = test system: HCT-15 colon
[20] = test system: MDA-MB-231 breast
[21] = test system: CCRF-CEM leukemia
[22] = test system: KM12 colon
[23] = test system: SF-539 CNS
[24] = test system: OVCAR-8 ovarian
[25] = test system: CAKI-1 renal
[26] = test system: EKVX NSCLC
[27] = test system: HCC-2998 colon
[28] = test system: A498 renal
[29] = test system: SK-MEL-2 melanoma
[30] = test system: M14 melanoma
[31] = test system: UO-31 renal
[32] = test system: IGROV1 ovarian
[33] = test system: MCF7 breast
[34] = test system: HL-60(TB) leukemia
[35] = test system: SR leukemia
[36] = test system: RXF 393 renal
[37] = test system: HT29 colon
[38] = test system: OVCAR-5 ovarian
[39] = test system: NCI-H23 lung
[40] = test system: SNB-75 CNS
[41] = test system: NCI/ADR-RES ovarian
[42] = test system: RPMI-8226 leukemia
[43] = test system: UACC-62 melanoma
[44] = test system: U251 CNS
[45] = test system: SK-MEL-5 melanoma
[46] = test system: 786-0 renal
[47] = test system: OVCAR-3 ovarian
[48] = test system: T-47D breast
[49] = test system: PC-3 prostate
[50] = test system: HS 578T breast
[51] = test system: BT-549 breast
[52] = test system: SK-MEL-28 melanoma
[53] = test system: SW-620 colon
[54] = test system: SNB-19 CNS
[55] = test system: A549 NSCLC
[56] = test system: NCI-H522 lung
[57] = test system: HOP-92 NSCLC
[58] = test system: K-562 leukemia

SMILES: CCCCNc1ncnc2c1cnn2-c1ccccc1
- GI50 [1]: 1.32 µM
- TGI [1]: > 100 µM
- GI50 [2]: 11 µM
- TGI [2]: > 83.8 µM
- GI50 [3]: 9.6 µM
- TGI [3]: > 100 µM
- GI50 [4]: 1.88 µM
- TGI [4]: 20.3 µM
- GI50 [5]: 0.237 µM
- TGI [5]: 0.7 µM
- GI50 [6]: 9.78 µM
- TGI [6]: > 84.5 µM
- GI50 [7]: 18.3 µM
- TGI [7]: > 100 µM
- GI50 [8]: 3.7 µM
- TGI [8]: > 100 µM
- GI50 [9]: 3.75 µM
- TGI [9]: > 100 µM
- GI50 [10]: 1.61 µM
- TGI [10]: > 43.1 µM
- GI50 [11]: 6.18 µM
- TGI [11]: > 100 µM
- GI50 [12]: 3.47 µM
- TGI [12]: 32.1 µM
- GI50 [13]: 5.35 µM
- TGI [13]: > 57.9 µM
- GI50 [14]: 1.15 µM
- TGI [14]: 11.7 µM
- GI50 [15]: 6.18 µM
- TGI [15]: > 72.5 µM
- GI50 [16]: 3.42 µM
- TGI [16]: > 100 µM
- GI50 [17]: 3.2 µM
- TGI [17]: 31.2 µM
- GI50 [18]: 13.7 µM
- TGI [18]: 86.1 µM
- GI50 [19]: 0.947 µM
- TGI [19]: > 50.1 µM
- GI50 [20]: 16.9 µM
- TGI [20]: 73 µM
- GI50 [21]: 5.24 µM
- TGI [21]: > 100 µM
- GI50 [22]: 0.474 µM
- TGI [22]: 27.2 µM
- GI50 [23]: 4.05 µM
- TGI [23]: > 100 µM
- GI50 [24]: 4.62 µM
- TGI [24]: > 88.1 µM
- GI50 [25]: 2.09 µM
- TGI [25]: > 40.8 µM
- GI50 [26]: 7.72 µM
- TGI [26]: > 86.6 µM
- GI50 [27]: 5.72 µM
- TGI [27]: 37.8 µM
- GI50 [28]: 4.32 µM
- TGI [28]: > 100 µM
- GI50 [29]: 2.82 µM
- TGI [29]: > 100 µM
- GI50 [30]: 1.42 µM
- TGI [30]: > 45.8 µM
- GI50 [31]: 7.44 µM
- TGI [31]: 71.2 µM
- GI50 [32]: 2.22 µM
- TGI [32]: > 100 µM
- GI50 [33]: 2.11 µM
- TGI [33]: > 100 µM
- GI50 [34]: 2.35 µM
- TGI [34]: 53 µM
- GI50 [35]: 0.444 µM
- TGI [35]: > 100 µM
- GI50 [36]: 1.97 µM
- TGI [36]: 8.26 µM
- GI50 [37]: 0.565 µM
- TGI [37]: 13.8 µM
- GI50 [38]: 12.9 µM
- TGI [38]: > 100 µM
- GI50 [39]: 3.34 µM
- TGI [39]: > 100 µM
- GI50 [40]: 2.11 µM
- TGI [40]: 39.9 µM
- GI50 [41]: 0.514 µM
- TGI [41]: 5.26 µM
- GI50 [42]: 3.76 µM
- TGI [42]: > 28.3 µM
- GI50 [43]: 5.04 µM
- TGI [43]: > 100 µM
- GI50 [44]: 2.84 µM
- TGI [44]: > 61.8 µM
- GI50 [45]: 1.19 µM
- TGI [45]: 11.1 µM
- GI50 [46]: 8.9 µM
- TGI [46]: 53 µM
- GI50 [47]: 1.46 µM
- TGI [47]: 5.16 µM
- GI50 [48]: 3.71 µM
- TGI [48]: 52.8 µM
- GI50 [49]: 2.38 µM
- TGI [49]: 56.9 µM
- GI50 [50]: 3.48 µM
- TGI [50]: 58.2 µM
- GI50 [51]: 6.71 µM
- TGI [51]: > 69 µM
- GI50 [52]: 10.1 µM
- TGI [52]: > 100 µM
- GI50 [53]: 0.709 µM
- TGI [53]: > 100 µM
- GI50 [54]: 8.69 µM
- TGI [54]: > 100 µM
- GI50 [55]: 5.29 µM
- TGI [55]: > 92.8 µM
- GI50 [56]: 0.799 µM
- TGI [56]: 9.94 µM
- GI50 [57]: 3.21 µM
- TGI [57]: 55.6 µM

SMILES: CN1CCCCC1CCN1c2ccccc2Sc2ccc(Br)cc21 (stereo not drawn)
- GI50 [1]: 1.88 µM
- TGI [1]: 3.67 µM
- GI50 [2]: 1.91 µM
- TGI [2]: 3.55 µM
- GI50 [3]: 3.54 µM
- TGI [3]: 11.9 µM
- GI50 [4]: 2.13 µM
- TGI [4]: 4.94 µM
- GI50 [5]: 1.98 µM
- TGI [5]: 4.24 µM
- GI50 [6]: 2.44 µM
- TGI [6]: 6.61 µM
- GI50 [7]: 3.6 µM
- TGI [7]: 13.6 µM
- GI50 [8]: 1.99 µM
- TGI [8]: 3.91 µM
- GI50 [9]: 2.83 µM
- TGI [9]: 7.83 µM
- GI50 [10]: 2.29 µM
- TGI [10]: 5.01 µM
- GI50 [11]: 3.23 µM
- TGI [11]: 11.9 µM
- GI50 [12]: 3.7 µM
- TGI [12]: 12.6 µM
- GI50 [13]: 1.99 µM
- TGI [13]: 5.14 µM
- GI50 [14]: 2.04 µM
- TGI [14]: 4.2 µM
- GI50 [15]: 2.08 µM
- TGI [15]: 4 µM
- GI50 [16]: 5.46 µM
- TGI [16]: 22.8 µM
- GI50 [17]: 3.44 µM
- TGI [17]: 12.3 µM
- GI50 [18]: 11.8 µM
- TGI [18]: 28.8 µM
- GI50 [19]: 3.17 µM
- TGI [19]: 10.2 µM
- GI50 [20]: 1.8 µM
- TGI [20]: 4.18 µM
- GI50 [21]: 2.77 µM
- TGI [21]: 10.1 µM
- GI50 [22]: 2.22 µM
- TGI [22]: 4.78 µM
- GI50 [23]: 2.02 µM
- TGI [23]: 4.01 µM
- GI50 [24]: 2.11 µM
- TGI [24]: 4.47 µM
- GI50 [25]: 2.97 µM
- TGI [25]: 10.9 µM
- GI50 [27]: 1.97 µM
- TGI [27]: 4.11 µM
- GI50 [28]: 2.21 µM
- TGI [28]: 7.08 µM
- GI50 [29]: 2.5 µM
- TGI [29]: 5.94 µM
- GI50 [30]: 1.83 µM
- TGI [30]: 3.34 µM
- GI50 [31]: 2.68 µM
- TGI [31]: 10.8 µM
- GI50 [32]: 2.37 µM
- TGI [32]: 6.37 µM
- GI50 [33]: 2.06 µM
- TGI [33]: 4.27 µM
- GI50 [34]: 2.06 µM
- TGI [34]: 4.65 µM
- GI50 [35]: 3.12 µM
- TGI [35]: 8.24 µM
- GI50 [36]: 2.18 µM
- TGI [36]: 6.46 µM
- GI50 [37]: 2.51 µM
- TGI [37]: 6.92 µM
- GI50 [38]: 2.45 µM
- TGI [38]: 7.65 µM
- GI50 [39]: 4.44 µM
- TGI [39]: 17.1 µM
- GI50 [40]: 1.65 µM
- TGI [40]: 5.56 µM
- GI50 [41]: 1.98 µM
- TGI [41]: 4.13 µM
- GI50 [42]: 2.24 µM
- TGI [42]: 5.49 µM
- GI50 [43]: 1.83 µM
- TGI [43]: 4.1 µM
- GI50 [58]: 2.18 µM
- TGI [58]: 5.98 µM
- GI50 [44]: 2.13 µM
- TGI [44]: 4.66 µM
- GI50 [45]: 1.78 µM
- TGI [45]: 3.47 µM
- GI50 [46]: 2.14 µM
- TGI [46]: 4.79 µM
- GI50 [47]: 3.36 µM
- TGI [47]: 11.7 µM
- GI50 [48]: 3.61 µM
- TGI [48]: 14.4 µM
- GI50 [49]: 2.81 µM
- TGI [49]: 8.76 µM
- GI50 [50]: 2.06 µM
- TGI [50]: 5.85 µM
- GI50 [51]: 4.17 µM
- TGI [51]: 17.7 µM
- GI50 [52]: 2.04 µM
- TGI [52]: 4.37 µM
- GI50 [53]: 2.08 µM
- TGI [53]: 5.04 µM
- GI50 [54]: 2.92 µM
- TGI [54]: 12.4 µM
- GI50 [55]: 2.71 µM
- TGI [55]: 8.19 µM
- GI50 [56]: 1.73 µM
- TGI [56]: 3.49 µM
- GI50 [57]: 1.4 µM
- TGI [57]: 4.72 µM
